Columns and labels:
ABUTH [1] = assay: Pre-emergence herbicidal action against ABUTH; type: in vivo, Abutilon theophrasti; details: Abutilon theophrasti, 504 h; for pest or weed control at 80 g/ha: scored visually after 3 weeks vs untreated controls (100% = plants have died, 0% = like control plants); for pest or weed control at 20 g/ha: dosage 20 g/ha, scored visually after 3 weeks vs untreated controls, 100% = plants have died, 0% = like control plants, read-out: Pre-emergence action against ABUTH (herbicidal activity in percent)
Procedure, shortened: (§1)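 Visual rating at 3 weeks vs untreated pots; 0–100% scale, 100% = plants died. Treatment: aqueous WP/EC spray onto covering soil, 600–800 l/ha, 0.2% wetter, seeds in sandy loam.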

ALOMY [2] = assay: Pre-emergence herbicidal action against ALOMY; type: in vivo, Alopecurus myosuroides; details: Alopecurus myosuroides, 504 h, pre-emergence; for pest or weed control at 80 g/ha: scored visually after 3 weeks vs untreated controls (100% = plants have died, 0% = like control plants)
Procedure, shortened: as §1

AMARE [3] = assay: Pre-emergence herbicidal action against AMARE; type: in vivo, Amaranthus retroflexus; details: Amaranthus retroflexus, 504 h, scored visually after 3 weeks vs untreated controls, 100% = plants have died, 0% = like control plants
Procedure, shortened: as §1

AVEFA = assay: Pre-emergence herbicidal action against AVEFA; type: in vivo, Avena fatua; details: Avena fatua, 504 h, pre-emergence
Procedure, shortened: as §1

ECHCG [4] = assay: Pre-emergence herbicidal action against ECHCG; type: in vivo, Echinochloa crus-galli; details: Echinochloa crus-galli, 504 h
Procedure, shortened: as §1

LOLRI = assay: Pre-emergence herbicidal action against LOLRI; type: in vivo, Lolium rigidum; details: Lolium rigidum, 504 h, 80 g/ha
Procedure, shortened: as §1

MATIN [5] = assay: Pre-emergence herbicidal action against MATIN; type: in vivo, Matricaria inodora; details: Tripleurospermum inodorum, 504 h; for pest or weed control at 20 g/ha: dosage 20 g/ha; for pest or weed control at 80 g/ha: dosage 80 g/ha
Procedure, shortened: as §1

PHBPU [6] = assay: Pre-emergence herbicidal action against PHBPU; type: in vivo, Pharbitis purpurea; details: Ipomoea purpurea, 504 h; for pest or weed control at 20 g/ha: dosage 20 g/ha; for pest or weed control at 80 g/ha: dosage 80 g/ha
Procedure, shortened: as §1

POLCO = assay: Pre-emergence herbicidal action against POLCO; type: in vivo, Polygonum convolvulus; details: Fallopia convolvulus, 504 h; for pest or weed control at 80 g/ha: dosage 80 g/ha
Procedure, shortened: as §1

SETVI [7] = assay: Pre-emergence herbicidal action against SETVI; type: in vivo, Setaria viridis; details: Setaria viridis, 504 h; for pest or weed control at 20 g/ha: dosage 20 g/ha; for pest or weed control at 80 g/ha: dosage 80 g/ha
Procedure, shortened: as §1

VERPE [8] = assay: Pre-emergence herbicidal action against VERPE; type: in vivo, Veronica persica; details: Veronica persica, 504 h, dosage 80 g/ha
Procedure, shortened: as §1

VIOTR [9] = assay: Pre-emergence herbicidal action against VIOTR; type: in vivo, Viola tricolor; details: Viola tricolor, 504 h; for pest or weed control at 20 g/ha: dosage 20 g/ha; for pest or weed control at 80 g/ha: dosage 80 g/ha
Procedure, shortened: as §1

DIGSA [10] = assay: Pre-emergence herbicidal action against DIGSA; type: in vivo, Digitaria sanguinalis; details: Digitaria sanguinalis, 504 h; for pest or weed control at 20 g/ha: dosage 20 g/ha; for pest or weed control at 80 g/ha: dosage 80 g/ha
Procedure, shortened: as §1

ABUTH [11] = assay: Post-emergence herbicidal action against ABUTH; type: in vivo, Abutilon theophrasti; details: Abutilon theophrasti, 504 h, visual assessment about 3 weeks after treatment vs untreated controls; for pest or weed control at 20 g/ha: dosage 20 g/ha
Procedure, shortened: (§2)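 Greenhouse pot plants in sandy loam were sprayed at the one-leaf stage, 2 to 3 weeks after sowing, with WP or EC formulations as aqueous suspension or emulsion (600 to 800 l/ha water, 0.2% wetting agent). About 3 weeks later, damage was scored visually against untreated controls as % action (100% = dead, 0% = like control).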

ALOMY [12] = assay: Post-emergence herbicidal action against ALOMY; type: in vivo, Alopecurus myosuroides; details: Alopecurus myosuroides, 504 h, dosage 20 g/ha, visual assessment about 3 weeks after treatment vs untreated controls
Procedure, shortened: as §2

AMARE [13] = assay: Post-emergence herbicidal action against AMARE; type: in vivo, Amaranthus retroflexus; details: Amaranthus retroflexus, 504 h, 20 g/ha, visual assessment about 3 weeks after treatment, 100% = plants have died, 0% = like control plants
Procedure, shortened: as §2

ECHCG [14] = assay: Post-emergence herbicidal action against ECHCG; type: in vivo, Echinochloa crus-galli; details: Echinochloa crus-galli, 504 h; for pest or weed control at 20 g/ha: dosage 20 g/ha
Procedure, shortened: as §2

MATIN [15] = assay: Post-emergence herbicidal action against MATIN; type: in vivo, Matricaria inodora; details: Tripleurospermum inodorum, 504 h; for pest or weed control at 20 g/ha: dosage 20 g/ha
Procedure, shortened: as §2

SETVI [16] = assay: Post-emergence herbicidal action against SETVI; type: in vivo, Setaria viridis; details: Setaria viridis, 504 h; for pest or weed control at 5 g/ha: dosage 5 g/ha; for pest or weed control at 20 g/ha: dosage 20 g/ha
Procedure, shortened: as §2

VIOTR [17] = assay: Post-emergence herbicidal action against VIOTR; type: in vivo, Viola tricolor; details: Viola tricolor, 504 h
Procedure, shortened: as §2

DIGSA [18] = assay: Post-emergence herbicidal action against DIGSA; type: in vivo, Digitaria sanguinalis; details: Digitaria sanguinalis, 504 h
Procedure, shortened: as §2

PHBPU [19] = assay: Post-emergence herbicidal action against PHBPU; type: in vivo, Pharbitis purpurea; details: Ipomoea purpurea, 504 h, dosage 20 g/ha
Procedure, shortened: as §2

VERPE [20] = assay: Post-emergence herbicidal action against VERPE; type: in vivo, Veronica persica; details: Veronica persica, 504 h, 20 g/ha
Procedure, shortened: as §2

[21] = 20 g/ha, scored visually after 3 weeks, 100% = plants have died, 0% = like control plants

| Compound | pest or weed control at 80 g/ha (ABUTH [1]) | pest or weed control at 80 g/ha (ALOMY [2]) | pest or weed control at 20 g/ha (AMARE [3]) | pest or weed control at 80 g/ha (AMARE [3]) | pest or weed control at 80 g/ha (AVEFA) | pest or weed control at 80 g/ha (ECHCG [4]) | pest or weed control at 80 g/ha (LOLRI) | pest or weed control at 20 g/ha (MATIN [5]) | pest or weed control at 80 g/ha (MATIN [5]) | pest or weed control at 80 g/ha (PHBPU [6]) | pest or weed control at 80 g/ha (POLCO) | pest or weed control at 20 g/ha (SETVI [7]) | pest or weed control at 80 g/ha (SETVI [7]) | pest or weed control at 80 g/ha (VERPE [8]) | pest or weed control at 20 g/ha (VIOTR [9]) | pest or weed control at 80 g/ha (VIOTR [9]) | pest or weed control at 20 g/ha (DIGSA [10]) | pest or weed control at 80 g/ha (DIGSA [10]) | pest or weed control at 20 g/ha (ABUTH [11]) | pest or weed control at 20 g/ha (AMARE [13]) | further results |
| --- | --- | --- | --- | --- | --- | --- | --- | --- | --- | --- | --- | --- | --- | --- | --- | --- | --- | --- | --- | --- | --- |
| CCn1nnnc1NC(=O)c1ccc(I)c(C(=O)NC2CC2)c1Cl [Example 2-197] | 100% | 90% | 100% | 100% | 100% | 100% | 90% | 80% | 100% | 90% | 100% | 90% | 100% | 90% | 100% | 100% | 100% | 100% | 80% | 90% | pest or weed control at 20 g/ha (AVEFA; [21]): 80%; pest or weed control at 20 g/ha (PHBPU [6]): 80%; pest or weed control at 20 g/ha (ALOMY [12]): 90%; pest or weed control at 20 g/ha (ECHCG [14]): 90%; pest or weed control at 20 g/ha (MATIN [15]): 80%; pest or weed control at 5 g/ha (SETVI [16]): 80%; pest or weed control at 20 g/ha (SETVI [16]): 100%; pest or weed control at 5 g/ha (VIOTR [17]): 80%; pest or weed control at 20 g/ha (VIOTR [17]): 100%; pest or weed control at 20 g/ha (DIGSA [18]): 90% |
| Cn1nnnc1NC(=O)c1ccc(C(F)(F)F)c(C(=O)NC2CC2)c1C1CC1 [Example 1-288] | 100% | 90% | 100% | 100% | 90% | 100% | 80% | 100% | 100% | 100% | 80% | 100% | 100% | 100% | 100% | 100% | 100% | 100% | 80% | 100% | pest or weed control at 20 g/ha (ABUTH [1]): 100%; pest or weed control at 20 g/ha (ECHCG [4]; 20 g/ha): 80%; pest or weed control at 5 g/ha (ABUTH [11]; dosage 5 g/ha): 80%; pest or weed control at 20 g/ha (ALOMY [12]): 90%; pest or weed control at 5 g/ha (ECHCG [14]; dosage 5 g/ha): 80%; pest or weed control at 20 g/ha (ECHCG [14]): 80%; pest or weed control at 5 g/ha (MATIN [15]; dosage 5 g/ha): 90%; pest or weed control at 20 g/ha (MATIN [15]): 100%; pest or weed control at 20 g/ha (PHBPU [19]): 80%; pest or weed control at 5 g/ha (SETVI [16]): 80%; pest or weed control at 20 g/ha (SETVI [16]): 100%; pest or weed control at 5 g/ha (VIOTR [17]): 90%; pest or weed control at 20 g/ha (VIOTR [17]): 90%; pest or weed control at 5 g/ha (DIGSA [18]): 90%; pest or weed control at 20 g/ha (DIGSA [18]): 100% |
| CCc1c(C(=O)Nc2nnnn2CC)ccc(C(F)F)c1C(=O)NC1CC1 [Example 2-279] | 100% | 90% | 100% | 100% | 100% | 100% | 80% | 90% | 100% | 90% | 90% | 80% | 100% | 90% | 100% | 100% | 90% | 100% | 80% | 100% | pest or weed control at 20 g/ha (ABUTH [1]): 80%; pest or weed control at 20 g/ha (ALOMY [2]; [21]): 80%; pest or weed control at 20 g/ha (PHBPU [6]): 80%; pest or weed control at 20 g/ha (POLCO; dosage 20 g/ha): 80%; pest or weed control at 20 g/ha (ECHCG [14]): 90%; pest or weed control at 20 g/ha (MATIN [15]): 80%; pest or weed control at 20 g/ha (VERPE [20]): 90%; pest or weed control at 5 g/ha (VIOTR [17]): 80%; pest or weed control at 20 g/ha (VIOTR [17]): 90%; pest or weed control at 5 g/ha (DIGSA [18]): 90%; pest or weed control at 20 g/ha (DIGSA [18]): 90% |
